Three compounds from patent publication US20250257364A1, “RNA-GUIDED DNA TRANSPOSITION” (priority 2024, published 2025) can be followed below.

Series [1] relates to E. coli murA CRISPRtOE strains vs lacZ controls. Put plainly: CRISPRtOE pooled library competitive growth assay with fosfomycin. It is filed as cell-based, E. coli K-12. The conditions noted are these: fosfomycin 0.4 μg/ml, ~10-15 doublings.
Procedure: (§1) CRISPRtOE library growth experiments. Competition experiment growth. The E. coli CRISPRtOE murA and folA libraries were mixed in equal volume with the LP-lacZ library: 50 μl frozen stock (OD600=10) of each library (murA+LP-lacZ and folA+LP-lacZ) into 100 ml LB (starting OD600=0.01) in a 500 ml flask and incubated shaking at 37° C. until OD600=0.2 (˜2.5 h) (timepoint=T0) to revive the cells. […] (T1). These cultures were serially diluted back to OD600=0.01 into fresh tubes containing the same media and incubated again with shaking for 18 h at 37° C. (T2) for a total of ˜10-15 doublings. Cells were pelleted from 15 ml of culture in duplicate at each time point T0 and 1 ml of culture at timepoints T1 and T2 and stored at −20° C.
(§2) To test for overexpression phenotypes, the folA or murA library was mixed 50:50 with the lacZ control library and cells were grown in the presence/absence of TMP or FOS, respectively.
The test system of series [2] is E. coli whole genome CRISPRtOE library (promoter H).
Procedure: Whole genome experiment growth. The E. coli CRISPRtOE whole genome libraries with no promoter (sJMP10704) or promoter H (sJMP10705) were revived by dilution of 100 μl frozen stock (OD600=15) into 100 ml LB (starting OD600=0.015) and incubation in 500 ml flasks shaking at 37° C. until OD600=0.2 (˜2.5 h) (timepoint=TO). […] (T1). These cultures were serially diluted back to OD600=0.01 into fresh tubes containing the same media and incubated again with shaking for 18 h at 37° C. (T2) for a total of ˜10-15 doublings. Cells were pelleted from 15 ml of culture in duplicate at time point TO and 1 ml of culture at timepoints T1 and T2 and stored at −20° C.
A custom Python script (counting_spacers.py) was used to determine the number of times each spacer appeared in the filtered alignment file. […] Pairwise comparison of spacer counts in DMSO and TMP treatment samples was performed using edgeR^70 and a custom Rscript (comparison_of_spacer_counts_edgeR.R). The results were plotted using a custom Rscripts (plotting_scatter_plot.R, barplot_with_points.R, scatter_plot_commands.R). […]
To test the ability of CRISPRtOE to identify antibiotic-relevant gene phenotypes at the genome-scale, the libraries were grown in the presence or absence of a sub-lethal concentration of TMP and relative strain abundance was measured.
The subject of series [3] is E. coli folA CRISPRtOE isolates vs parent strains. To be noted: TMP 0.04-20 μg/ml, MHB, 20 h.
Procedure: MIC assays. The minimal inhibitory concentration (MIC) of E. coli folA and murA CRISPRtOE isolates was determined by either growth in a microtiter plate or by disc diffusion assays, respectively. For the broth microdilution assay, CRISPRtOE isolates and WT controls were grown to saturation from an isolated colony and serially diluted to OD600=0.003) and the CRISPRtOE library was diluted from a glycerol stock to the same density. […] E. coli folA CRISPRtOE isolates, the folA CRISPRtOE library, a lacZ CRISPRtOE control, and WT cultures and the media containing antibiotic were mixed in equal proportions and incubated 20 h shaking at 37° C. prior to cell density (OD600) determination in a microplate reader. For the MIC strip assays, E. coli folA or murA CRISPRtOE isolates, a lacZ CRISPRtOE control, and WT cultures were diluted to OD600=0.3 and 300 μl was spread on a 100 mm MH agar plate and dried in a laminar flow cabinet. When dry, MIC strips (Liofilchem, Italy; 920371 (TMP 0.002-32 mg/L) and 920791(FOS 0.064-1024 mg/L)) were applied to the plate and 10 μl serially diluted antibiotics were applied to the discs. Plates were incubated at 37° C. for 18 h. Broth microdilution assays were repeated 3 times and MIC test strip assays twice.
Series [4] has as its system E. coli folA CRISPRtOE strains vs lacZ controls.
Procedure: as §1, §2
For a further series, the system named is lacZ. Put plainly: CRISPRt disruption of lacZ, blue-white screening of transconjugants. Type of series: cell-based, E. coli K-12. To be noted: lacZ targeted. How it is done: Transfer of the CRISPRt/CRISPRtOE system to the bacterial chromosome. CRISPRt and CRISPRtOE strains were constructed by triparental mating of two E. coli donor strains-one with the pCRISPRt-H plasmid encoding Cas678-TniQ-TnsABC and another with the pCRISPRt-T or pCtOE plasmid containing the transposon with the guide RNA and antibiotic resistance- and a recipient strain (Table 1). All conjugations and selection post-conjugation were carried out at 30° C. regardless of the normal incubation temperature for the organism. Isolated donor and recipient strains were struck out on plates with the appropriate media and antibiotic (if relevant) concentrations. Colonies were resuspended from plates into the growth medium used for the recipient to a density of OD600=9. […]
For lacZ targeted CRISPRt, the color of 80 individual colonies was determined by patching on LB agar plates containing X-gal (20 μg/ml). […]
To test the precision of CRISPRt, both endogenous (lacZ) and heterologous (gfp) reporter genes were targeted for disruption in E. coli K-12 (data not shown). […] Next, targeting on the genome scale was determined by sequencing genomic DNA at the Tn6677 transposon junction (Tn-seq) using Illumina®-based Next Generation Sequencing (NGS). […]

For the next series, the system named is E. coli genome. Put plainly: Tn-seq of CRISPRt transposon insertion sites (specificity, orientation). The conditions noted are these: insertions ~49 bp downstream of protospacer. It is filed as cell-based, E. coli K-12. An excerpt:
FIGS. 1a-e illustrate a mobilizable, selectable, dual-plasmid system for CRISPR-guided transposition. 1a. Schematic of a targeted transposition gene knockout (CRISPRt) and gene overexpression (CRISPRtOE) system optimized for functional genomics. 1b. Schematic of mechanism of Vibrio cholera Type I-F CRISPR-associated transposon (Vc CAST) system. 1c. Schematic of strain construction using the CRISPRt targeted transposition system. Plasmids have pir-dependent origins of replication preventing replication in the bacterial recipient. […] Inside the recipient cell, the transposon (flanked in yellow) is inserted onto the chromosome at a site determined by the sequence of the guide RNA. […] Specificity of CRISPRt disruption of gfp and lacZ in E. coli measured by Tnseq. Mapping of location of transposon insertion sites to the E. coli genome after CRISPRt targeted transposition with gfp1 guide (226,671 reads) or LZ1 guide (216,801 reads). […]
Tnseq analysis of CRISPRt/CRISPRtOE constructs. […] PCR products were spin-purified (eluted in 15 μl) and quantified fluorometrically. […] Briefly, PCR products were amplified with nested primers containing i5 and i7 indexes and Illumina® TruSeq™ adapters followed by bead cleanup, quantification, pooling and running on a NovaSeq X Plus (150 bp paired end reads) or MiSeq (250 bp paired end reads). […]

With `C[C@@H]1O[C@@H]1P(=O)(O)O` [FOS, fosfomycin], in series [1], the “increase in abundance of murA OE strains relative to lacZ controls” value was 52 fold.
Turning to `COc1cc(Cc2cnc(N)nc2N)cc(OC)c1OC` [TMP, trimethoprim], the “enrichment of folA-associated spacers” value in series [2] is reported as more than 1000 fold. In series [3], the “shift in MIC between parent strains and folA CRISPRtOE isolates” value is 15 to 30 fold. In series [4], the “increase in abundance of folA OE strains relative to lacZ controls” value is reported as 22 fold.
As for “lacZ: gRNA spacer LZ1 (Petassi, PMID: 33271061), SEQ ID NO: 16, targeting lacZ (guide CAACTTAATCGCCTTGCAGCACATCCCCCTTT; chemistry not given here)”, in the series with lacZ, the “transconjugants showing the expected disruption phenotype” value is reported as 100%. Moreover, the “insertions in R-L orientation” value in the series with E. coli genome was found to be 74.1%.
